{"source": "paper PMC7415619", "about": "(European journal of medicinal chemistry, 2020)", "key": {"FACL19": {"target": "FACL19 (Mycobacterium tuberculosis, UniProt P9WQ51)", "sequence (P9WQ51 whole entry)": "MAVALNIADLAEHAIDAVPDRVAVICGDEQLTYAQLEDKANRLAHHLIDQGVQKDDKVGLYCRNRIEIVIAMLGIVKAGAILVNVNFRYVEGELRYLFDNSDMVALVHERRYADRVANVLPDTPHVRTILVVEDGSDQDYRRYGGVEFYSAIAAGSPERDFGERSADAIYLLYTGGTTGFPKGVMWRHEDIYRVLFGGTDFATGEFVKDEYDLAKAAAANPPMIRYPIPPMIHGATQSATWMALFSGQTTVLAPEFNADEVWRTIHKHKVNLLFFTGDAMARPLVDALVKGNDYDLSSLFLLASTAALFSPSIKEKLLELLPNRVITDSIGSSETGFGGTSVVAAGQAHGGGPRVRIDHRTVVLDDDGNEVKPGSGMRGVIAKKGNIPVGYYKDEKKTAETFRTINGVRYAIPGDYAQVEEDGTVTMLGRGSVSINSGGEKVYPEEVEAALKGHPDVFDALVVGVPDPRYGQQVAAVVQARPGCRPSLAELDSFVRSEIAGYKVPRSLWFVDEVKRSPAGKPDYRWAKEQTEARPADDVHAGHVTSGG", "assay": "Coupled continuous enzyme kinetic assay", "format": "biochemical", "conditions": "for Ki^app FACL19: apparent Ki, Morrison equation, 250 μM dodecanoic acid"}, "FAAL28": {"target": "FAAL28 (Mycobacterium tuberculosis, UniProt P9WQ59)", "sequence (P9WQ59 whole entry)": "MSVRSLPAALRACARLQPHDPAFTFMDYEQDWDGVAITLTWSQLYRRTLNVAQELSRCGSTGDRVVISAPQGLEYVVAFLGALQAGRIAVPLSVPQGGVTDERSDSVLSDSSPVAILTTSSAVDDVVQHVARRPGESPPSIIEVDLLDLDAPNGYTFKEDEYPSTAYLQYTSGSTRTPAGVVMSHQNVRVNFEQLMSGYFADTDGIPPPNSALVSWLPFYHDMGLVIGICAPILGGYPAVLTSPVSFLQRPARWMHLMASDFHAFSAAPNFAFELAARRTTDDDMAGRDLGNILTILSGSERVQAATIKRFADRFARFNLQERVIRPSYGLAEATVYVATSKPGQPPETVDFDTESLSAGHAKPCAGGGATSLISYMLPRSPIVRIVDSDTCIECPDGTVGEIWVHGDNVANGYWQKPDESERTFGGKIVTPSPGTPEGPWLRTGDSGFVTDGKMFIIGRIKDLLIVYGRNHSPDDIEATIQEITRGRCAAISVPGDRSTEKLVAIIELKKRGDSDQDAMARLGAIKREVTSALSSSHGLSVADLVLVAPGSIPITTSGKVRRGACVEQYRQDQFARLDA", "assay": "Coupled continuous enzyme kinetic assay", "format": "biochemical", "conditions": "for Ki^app FAAL28: apparent Ki, Morrison equation, 33 μM tetradecanoic acid"}, "[1]": {"system": "MDR-TB and XDR-TB strains", "assay": "microbe, parasite or virus in culture", "format": "cell-based", "conditions": "Mycobacterium tuberculosis"}, "Mtb H37Rv": {"system": "Mtb H37Rv", "assay": "Minimum inhibitory concentration, broth microdilution, whole-cell activity", "format": "cell-based, Mycobacterium tuberculosis", "conditions": "for MIC: Mycobacterium tuberculosis, H37RV; for MIC GAST: Mtb H37Rv, GAST medium, MIC = >99% inhibition of cell growth"}, "Mtb": {"system": "Mtb", "conditions": "cited from earlier work"}, "Vero cells": {"system": "Vero cells", "assay": "Cytotoxicity, MTT assay", "conditions": "read-out: Cytotox IC50, Vero monkey cells, 72 h"}, "[2]": {"conditions": "read-out: MICs against MDR-TB and XDR-TB panel in both media"}, "[3]": {"conditions": "read-out: MIC 7H9, Mtb H37Rv, 7H9 medium"}, "[4]": {"conditions": "read-out: MIC 7H9/palmitate, Mtb H37Rv, 7H9/palmitate medium"}, "[5]": {"conditions": "read-out: MICs against MDR and XDR Mtb panel in 7H9 medium"}}, "note": "Where two headings read alike, the source gives them in different places."}
{"smiles": "CCCCCCCCCCCCCCCC(=O)NS(=O)(=O)OC[C@H]1O[C@@H](n2cnc3c(N)ncnc32)[C@H](O)[C@@H]1O", "note": "[Compound 18, 5′-O-[N-(Palmitoyl)sulfamoyl]adenosine]", "values": [{"measurement": "Ki", "setting": "FACL19", "result": 3.2, "unit": "µM"}]}
{"smiles": "Nc1ncnc2c1ncn2[C@@H]1O[C@H](COS(=O)(=O)NCCCCCCCCCCCOc2ccccc2)[C@@H](O)[C@H]1O", "note": "[Compound 89, 5′-O-[N-(11-Phenoxyundecyl)sulfamoyl]adenosine]", "values": [{"measurement": "Ki^app FAAL28", "setting": "FAAL28", "result": "ablated biochemical inhibition"}]}
{"smiles": "Nc1ncnc2c1ncn2[C@@H]1O[C@H](COS(=O)(=O)NC(=O)CCCCCCCCCCOc2ccccc2)[C@@H](O)[C@H]1O", "note": "[Compound 32, 5′-O-[N-(11-Phenoxyundecanoyl)sulfamoyl]adenosine]", "values": [{"measurement": "Ki^app FACL19", "setting": "FACL19", "result": "completely inactive"}, {"measurement": "selectivity for FAAL28 over FACL19", "setting": "FAAL28; ratio of apparent Ki values", "result": "greater than 142 fold"}, {"measurement": "MIC", "setting": "[1]; [2]", "result": "3.13 to 12.5", "unit": "µM"}]}
{"smiles": "Nc1ncnc2c1ncn2[C@@H]1O[C@H](COS(=O)(=O)NC(=O)CCCCCCCCCOc2ccccc2)[C@@H](O)[C@H]1O", "note": "[Compound 38, 5′-O-[N-(10-Phenoxydecanoyl)sulfamoyl]adenosine]", "values": [{"measurement": "fold decrease in potency for FAAL28 relative to 32", "setting": "FAAL28", "result": 10, "unit": "fold"}]}
{"smiles": "CCCCCCCCCC[C@@H](C)C(=O)NS(=O)(=O)OC[C@H]1O[C@@H](n2cnc3c(N)ncnc32)[C@H](O)[C@@H]1O", "note": "[Compound 33, 5′-O-{N-[(R)-2-Methyldodecanoyl]sulfamoyl}adenosine]", "values": [{"measurement": "Ki", "setting": "FACL19", "result": "> 100", "unit": "µM"}, {"measurement": "Ki", "setting": "FAAL28", "result": "> 100", "unit": "µM"}, {"measurement": "MIC", "setting": "Mtb H37Rv; [3]", "result": "> 100", "unit": "µM"}, {"measurement": "MIC", "setting": "Mtb H37Rv; [4]", "result": "> 100", "unit": "µM"}]}
{"smiles": "CCCCCCCCCCCCCC(=O)NS(=O)(=O)OC[C@H]1O[C@@H](n2cnc3c(N)ncnc32)[C@H](O)[C@@H]1O", "note": "[Compound 17, 5′-O-[N-(Tetradecanoyl)sulfamoyl]adenosine]", "values": [{"measurement": "MIC", "setting": "[1]; [5]", "result": "3.13 to 12.5", "unit": "µM"}]}
{"smiles": "Nc1ncnc2c1ncn2[C@@H]1O[C@H](CNS(=O)(=O)NC(=O)CCCCCCCCCCOc2ccccc2)[C@@H](O)[C@H]1O", "note": "[Compound 83, 5′-deoxy-5′-{N-[(11-Phenoxyundecanoyl)sulfamoyl]amino} adenosine]", "values": [{"measurement": "Ki^app FACL19", "setting": "FACL19", "result": "no inhibition"}, {"measurement": "fold decrease in potency for FAAL28 relative to 32", "setting": "FAAL28", "result": 4, "unit": "fold"}]}
{"smiles": "CCCCCCCCCOCC(=O)NS(=O)(=O)OC[C@H]1O[C@@H](n2cnc3c(N)ncnc32)[C@H](O)[C@@H]1O", "note": "[Compound 36, 5′-O-[N-2-(Nonyloxy)acetylsulfamoyl]adenosine]", "values": [{"measurement": "MIC GAST", "setting": "Mtb H37Rv", "result": "0.098 to 0.19", "unit": "µM"}, {"measurement": "MIC", "setting": "Mtb H37Rv; [4]", "result": "25 to 50", "unit": "µM"}]}
{"smiles": "C[C@H](CCC(=O)NS(=O)(=O)OC[C@H]1O[C@@H](n2cnc3c(N)ncnc32)[C@H](O)[C@@H]1O)[C@H]1CC[C@H]2[C@@H]3CC[C@@H]4C[C@H](O)CC[C@]4(C)[C@H]3CC[C@]12C", "note": "[Compound 11, reference compound]", "values": [{"measurement": "MIC against Mtb", "setting": "Mtb", "result": 50, "unit": "µM"}]}
{"smiles": "Nc1ncnc2c1ncn2[C@@H]1O[C@H](COS(=O)(=O)NC(=O)CCCCCCCCCCC(=O)O)[C@@H](O)[C@H]1O", "note": "[Compound 31, 5′-O-[N-(11-Carboxyundecanoyl)sulfamoyl]adenosine]", "values": [{"measurement": "Ki", "setting": "FACL19", "result": "> 100", "unit": "µM"}, {"measurement": "Ki", "setting": "FAAL28", "result": "> 100", "unit": "µM"}, {"measurement": "MIC", "setting": "Mtb H37Rv; [3]", "result": "> 100", "unit": "µM"}, {"measurement": "MIC", "setting": "Mtb H37Rv; [4]", "result": "> 100", "unit": "µM"}]}
{"smiles": "CCCCCCCCCCCCCCCCCCCC(=O)NS(=O)(=O)OC[C@H]1O[C@@H](n2cnc3c(N)ncnc32)[C@H](O)[C@@H]1O", "note": "[Compound 20, 5′-O-[N-(Icosanoyl)sulfamoyl]adenosine]", "values": [{"measurement": "IC50", "setting": "Vero cells", "result": 0.1, "unit": "µM"}]}
{"smiles": "COC(=O)CCCCCCCCCCC(=O)NS(=O)(=O)OC[C@H]1O[C@@H](n2cnc3c(N)ncnc32)[C@H](O)[C@@H]1O", "note": "[Compound 30, 5′-O-[N-(12-Methoxy-12-oxododecanoyl)sulfamoyl]adenosine]", "values": [{"measurement": "Ki", "setting": "FACL19", "result": "> 100", "unit": "µM"}, {"measurement": "Ki", "setting": "FAAL28", "result": "> 100", "unit": "µM"}, {"measurement": "MIC GAST", "setting": "Mtb H37Rv", "result": 3.13, "unit": "µM"}, {"measurement": "MIC", "setting": "Mtb H37Rv; [3]", "result": 100, "unit": "µM"}, {"measurement": "MIC", "setting": "Mtb H37Rv; [4]", "result": "> 100", "unit": "µM"}]}
{"smiles": "CCCCC/C=C\\CCCC(=O)NS(=O)(=O)OC[C@H]1O[C@@H](n2cnc3c(N)ncnc32)[C@H](O)[C@@H]1O", "note": "[Compound 25, 5′-O-{N-[(Z)-Undec-5-enoyl]sulfamoyl}adenosine]", "values": [{"measurement": "Ki", "setting": "FACL19", "result": "> 100", "unit": "µM"}, {"measurement": "Ki", "setting": "FAAL28", "result": "> 100", "unit": "µM"}, {"measurement": "MIC", "setting": "Mtb H37Rv; [3]", "result": 100, "unit": "µM"}, {"measurement": "MIC", "setting": "Mtb H37Rv; [4]", "result": 100, "unit": "µM"}]}
{"smiles": "CCCCCCCCCCC(C)(C)C(=O)NS(=O)(=O)OC[C@H]1O[C@@H](n2cnc3c(N)ncnc32)[C@H](O)[C@@H]1O", "note": "[Compound 35, 5′-O-[N-(2,2-Dimethyldodecanoyl)sulfamoyl]adenosine]", "values": [{"measurement": "Ki", "setting": "FACL19", "result": 54.7, "unit": "µM"}, {"measurement": "Ki", "setting": "FAAL28", "result": "> 100", "unit": "µM"}, {"measurement": "MIC", "setting": "Mtb H37Rv; [3]", "result": "> 100", "unit": "µM"}, {"measurement": "MIC", "setting": "Mtb H37Rv; [4]", "result": "> 100", "unit": "µM"}]}
{"smiles": "CCCCCCCCC/C=C/C(=O)NS(=O)(=O)OC[C@H]1O[C@@H](n2cnc3c(N)ncnc32)[C@H](O)[C@@H]1O", "note": "[Compound 23, 5′-O-{N-[(E)-Dodec-2-enoyl]sulfamoyl}adenosine]", "values": [{"measurement": "MIC", "setting": "[1]; [2]", "result": "3.13 to 12.5", "unit": "µM"}]}
{"smiles": "[N-]=[N+]=NCCCCCCCCCCCC(=O)NS(=O)(=O)OC[C@H]1O[C@@H](n2cnc3c(N)ncnc32)[C@H](O)[C@@H]1O", "note": "[Compound 28, 5′-O-[N-(12-Azidododecanoyl)sulfamoyl]adenosine]", "values": [{"measurement": "MIC GAST", "setting": "Mtb H37Rv", "result": "0.098 to 3.13", "unit": "µM"}, {"measurement": "MIC", "setting": "Mtb H37Rv; [3]", "result": "12.5 to 25", "unit": "µM"}]}
{"smiles": "CCCCCCCCCC[C@H](C)C(=O)NS(=O)(=O)OC[C@H]1O[C@@H](n2cnc3c(N)ncnc32)[C@H](O)[C@@H]1O", "note": "[Compound 34, 5′-O-{N-[(S)-2-Methylodecanoyl]sulfamoyl}adenosine]", "values": [{"measurement": "Ki", "setting": "FACL19", "result": "> 100", "unit": "µM"}, {"measurement": "Ki", "setting": "FAAL28", "result": "> 100", "unit": "µM"}, {"measurement": "MIC", "setting": "Mtb H37Rv; [3]", "result": "> 100", "unit": "µM"}, {"measurement": "MIC", "setting": "Mtb H37Rv; [4]", "result": "> 100", "unit": "µM"}]}
{"smiles": "CCCCCCCCC[C@@H]1C[C@@H]1C(=O)NS(=O)(=O)OC[C@H]1O[C@@H](n2cnc3c(N)ncnc32)[C@H](O)[C@@H]1O", "note": "[Compound 26, 5′-O-{N-[(1S,2R)-2-Nonylcyclopropanecarbonyl]sulfamoyl} adenosine]", "values": [{"measurement": "Ki^app FAAL28", "setting": "FAAL28", "result": "weak inhibition"}]}
{"smiles": "Nc1ncnc2c1ncn2[C@@H]1O[C@H](CNS(=O)(=O)OCCCCCCCCCCCOc2ccccc2)[C@@H](O)[C@H]1O", "note": "[Compound 93, 5′-Deoxy-5′-{[(11-phenoxyundecyloxy)sulfonyl]amino}adenosine]", "values": [{"measurement": "Ki^app FAAL28", "setting": "FAAL28", "result": "ablated biochemical inhibition"}]}
{"smiles": "CCCCCCCCCCCC(=O)NS(=O)(=O)OC[C@H]1O[C@@H](n2cnc3c(N)ncnc32)[C@H](O)[C@@H]1O", "note": "[Compound 9, 5′-O-[N-(Dodecanoyl)sulfamoyl]adenosine]", "values": [{"measurement": "MIC against Mtb", "setting": "Mtb", "result": 100, "unit": "µM"}, {"measurement": "MIC GAST", "setting": "Mtb H37Rv", "result": "0.19 to 0.39", "unit": "µM"}, {"measurement": "MIC", "setting": "[1]; [5]", "result": "3.13 to 12.5", "unit": "µM"}]}
{"smiles": "NCCCCCCCCCCCC(=O)NS(=O)(=O)OC[C@H]1O[C@@H](n2cnc3c(N)ncnc32)[C@H](O)[C@@H]1O", "note": "[Compound 29, 5′-O-[N-(12-Aminododecanoyl)sulfamoyl]adenosine]", "values": [{"measurement": "MIC", "setting": "Mtb H37Rv; [4]", "result": "12.5 to 25", "unit": "µM"}]}
